Common to all, as to assay type: biochemical
One experiment deals with EGFR WT (Homo sapiens (Human), UniProt P00533). The experiment can be described thus: HotSpot radiometric kinase assay (Reaction Biology), EGFR WT. The following applies: 10 μM ATP. The gist of the method: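 IC50 values derive from curve fits of 33P incorporation measured by P81 filter binding. ATP was 10 μM final; incubation lasted 120 min at room temperature after ~20 min compound preincubation.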

A further experiment addresses EGFR (D770_N771insNPG) (Homo sapiens (Human), UniProt P00533, INS770NPG). The experiment can be described thus: HotSpot radiometric kinase assay, EGFR (D770_N771insNPG). The following applies: 10 μM ATP, read-out: EGFR (Δ770_N771insNPG) IC50. The gist of the method: (§1)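 Enzyme and substrate pairs were exposed to inhibitor for roughly 20 min before radiolabelled ATP (10 μM final) was introduced; the reaction proceeded 120 min at ambient temperature in pH 7.5 buffer with 1% DMSO, and phosphorylated product was captured on P81 filters for IC50 determination.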

For the next experiment, the target named is EGFR Δ746-750 mutant (Homo sapiens (Human), UniProt P00533, DEL746-750). The experiment can be described thus: HotSpot radiometric kinase assay, EGFR Δ746-750 mutant. The following applies: 10 μM ATP. The method in brief: as §1
Sequence of EGFR Δ746-750 mutant (P00533 other isoform, or with tags, fused parts or gaps del 1-668/del 746-750 limits assumed): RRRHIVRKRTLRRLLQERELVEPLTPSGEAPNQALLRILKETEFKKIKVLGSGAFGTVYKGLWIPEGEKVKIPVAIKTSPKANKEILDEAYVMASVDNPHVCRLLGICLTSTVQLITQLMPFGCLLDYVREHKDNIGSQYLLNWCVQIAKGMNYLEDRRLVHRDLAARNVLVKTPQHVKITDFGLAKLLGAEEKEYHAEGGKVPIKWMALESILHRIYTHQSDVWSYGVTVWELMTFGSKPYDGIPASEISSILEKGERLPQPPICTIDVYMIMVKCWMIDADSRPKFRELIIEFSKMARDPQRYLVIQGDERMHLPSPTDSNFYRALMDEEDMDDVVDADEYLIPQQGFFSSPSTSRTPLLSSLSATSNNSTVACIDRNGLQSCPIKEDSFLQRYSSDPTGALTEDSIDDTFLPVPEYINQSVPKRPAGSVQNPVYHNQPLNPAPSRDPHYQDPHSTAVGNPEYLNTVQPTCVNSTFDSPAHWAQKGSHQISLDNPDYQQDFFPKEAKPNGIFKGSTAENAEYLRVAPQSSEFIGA
Another experiment deals with EGFR L858R mutant (Homo sapiens (Human), UniProt P00533, L858R). The experiment can be described thus: HotSpot radiometric kinase assay, EGFR L858R mutant. The following applies: 10 μM ATP. The method in brief: as §1
The target in experiment [1] is EGFR L858R/T790M/C797S mutant (Homo sapiens (Human), UniProt P00533, C797S/L858R/T790M). As to the kind of experiment: HotSpot radiometric kinase assay, EGFR L858R/T790M/C797S mutant. The following applies: 10 μM ATP. The gist of the method:
as §1

Another experiment addresses ALK (Homo sapiens (Human), UniProt Q9UM73). The experiment can be described thus: HotSpot radiometric kinase assay, inhibition of ALK kinase activity. The following applies: 10 μM ATP. On the procedure:
Briefly, specific kinase/substrate pairs along with required cofactors were prepared in reaction buffer; 20 mM Hepes pH 7.5, 10 mM […], 1 mM EGTA, 0.02% Brij35, 0.02 mg/ml BSA, 0.1 mM Na3VO4, 2 mM DTT, 1% DMSO. Compounds were delivered into the reaction, followed […] later by addition of a mixture of ATP (Sigma, St. Louis MO) and ^33P ATP (Perkin Elmer, Waltham MA) to a final concentration of 10 μM. Reactions were carried out at room temperature for 120 min, followed by spotting of the reactions onto P81 ion exchange filter paper (Whatman Inc., Piscataway, NJ). Unbound phosphate was removed by extensive washing of filters in 0.75% phosphoric acid. […] IC50 values and curve fits were obtained using Prism (GraphPad Software).

Experiment [2] concerns the target EGFR Δ746-750/C797S mutant (Homo sapiens (Human), UniProt P00533, C797S/DEL746-750). The experiment can be described thus: HotSpot radiometric kinase assay, EGFR Δ746-750/C797S mutant. The following applies: 10 μM ATP. The method in brief: as §1
The target in another experiment is EGFR L858R/T790M mutant (Homo sapiens (Human), UniProt P00533, L858R/T790M). As to the kind of experiment: HotSpot radiometric kinase assay, EGFR L858R/T790M mutant. The conditions noted are these: 10 μM ATP. The gist of the method:
as §1

A further experiment deals with CLK1 (Homo sapiens (Human), UniProt P49759). As to the kind of experiment: Inhibition of CLK1 kinase activity evaluated at Nanosyn (ADP-Glo). The conditions noted are these: ADP-Glo luminescence. The method in brief: (§2)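 Percent inhibition derived from luminescent ADP detection (ADP-Glo), normalised to DMSO-only and enzyme-free wells. Reactions ran in HEPES pH 7.5 buffer with Mg2+, Triton X-100 and BSA, 1% DMSO, ATP-initiated, for an assay-specific time.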

For the next experiment, the target named is CLK2 (Homo sapiens (Human), UniProt P49760). The experiment can be described thus: Inhibition of CLK2 kinase activity evaluated at Nanosyn (ADP-Glo). The conditions noted are these: ADP-Glo luminescence. The method in brief: as §2
Sequence of CLK2 (P49760 whole entry): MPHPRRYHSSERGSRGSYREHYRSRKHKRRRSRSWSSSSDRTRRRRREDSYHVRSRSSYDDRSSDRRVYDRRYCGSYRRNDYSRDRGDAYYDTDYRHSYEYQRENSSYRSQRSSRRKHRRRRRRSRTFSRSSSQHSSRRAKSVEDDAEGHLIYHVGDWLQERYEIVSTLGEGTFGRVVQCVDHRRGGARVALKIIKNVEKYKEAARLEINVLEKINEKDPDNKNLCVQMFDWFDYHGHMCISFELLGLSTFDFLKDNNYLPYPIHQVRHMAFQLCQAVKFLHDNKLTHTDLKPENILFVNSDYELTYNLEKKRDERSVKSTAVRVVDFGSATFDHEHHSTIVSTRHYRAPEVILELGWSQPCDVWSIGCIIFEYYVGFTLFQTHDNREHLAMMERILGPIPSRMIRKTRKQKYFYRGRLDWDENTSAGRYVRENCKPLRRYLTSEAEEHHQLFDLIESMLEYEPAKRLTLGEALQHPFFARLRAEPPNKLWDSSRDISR
On the technique in general: In ADP-Glo the light output rises with the ADP produced.

In another experiment the target is CLK3 (Homo sapiens (Human), UniProt P49761). The experiment can be described thus: Inhibition of CLK3 kinase activity evaluated at Nanosyn (ADP-Glo). The conditions noted are these: ADP-Glo luminescence. The gist of the method: as §2
Sequence of CLK3 (P49761 whole entry): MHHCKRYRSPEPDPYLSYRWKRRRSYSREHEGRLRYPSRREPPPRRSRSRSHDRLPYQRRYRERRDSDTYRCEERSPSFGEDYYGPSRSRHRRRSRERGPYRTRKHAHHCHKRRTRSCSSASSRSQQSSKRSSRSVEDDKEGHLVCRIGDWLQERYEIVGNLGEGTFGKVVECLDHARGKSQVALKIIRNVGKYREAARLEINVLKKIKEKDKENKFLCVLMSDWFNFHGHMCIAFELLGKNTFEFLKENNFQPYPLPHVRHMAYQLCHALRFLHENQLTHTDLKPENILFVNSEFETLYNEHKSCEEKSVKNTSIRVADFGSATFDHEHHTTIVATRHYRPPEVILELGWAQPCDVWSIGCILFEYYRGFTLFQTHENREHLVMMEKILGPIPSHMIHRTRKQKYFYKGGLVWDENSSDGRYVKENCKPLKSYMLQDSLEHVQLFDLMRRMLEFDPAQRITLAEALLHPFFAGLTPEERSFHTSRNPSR
A further experiment addresses CLK4 (Homo sapiens (Human), UniProt Q9HAZ1). As to the kind of experiment: Inhibition of CLK4 kinase activity evaluated at Nanosyn (ADP-Glo). The following applies: ADP-Glo luminescence. The gist of the method: as §2

One may read the IC50 as the concentration that gives 50% inhibition.

Sequence of ALK (Q9UM73 19-1620): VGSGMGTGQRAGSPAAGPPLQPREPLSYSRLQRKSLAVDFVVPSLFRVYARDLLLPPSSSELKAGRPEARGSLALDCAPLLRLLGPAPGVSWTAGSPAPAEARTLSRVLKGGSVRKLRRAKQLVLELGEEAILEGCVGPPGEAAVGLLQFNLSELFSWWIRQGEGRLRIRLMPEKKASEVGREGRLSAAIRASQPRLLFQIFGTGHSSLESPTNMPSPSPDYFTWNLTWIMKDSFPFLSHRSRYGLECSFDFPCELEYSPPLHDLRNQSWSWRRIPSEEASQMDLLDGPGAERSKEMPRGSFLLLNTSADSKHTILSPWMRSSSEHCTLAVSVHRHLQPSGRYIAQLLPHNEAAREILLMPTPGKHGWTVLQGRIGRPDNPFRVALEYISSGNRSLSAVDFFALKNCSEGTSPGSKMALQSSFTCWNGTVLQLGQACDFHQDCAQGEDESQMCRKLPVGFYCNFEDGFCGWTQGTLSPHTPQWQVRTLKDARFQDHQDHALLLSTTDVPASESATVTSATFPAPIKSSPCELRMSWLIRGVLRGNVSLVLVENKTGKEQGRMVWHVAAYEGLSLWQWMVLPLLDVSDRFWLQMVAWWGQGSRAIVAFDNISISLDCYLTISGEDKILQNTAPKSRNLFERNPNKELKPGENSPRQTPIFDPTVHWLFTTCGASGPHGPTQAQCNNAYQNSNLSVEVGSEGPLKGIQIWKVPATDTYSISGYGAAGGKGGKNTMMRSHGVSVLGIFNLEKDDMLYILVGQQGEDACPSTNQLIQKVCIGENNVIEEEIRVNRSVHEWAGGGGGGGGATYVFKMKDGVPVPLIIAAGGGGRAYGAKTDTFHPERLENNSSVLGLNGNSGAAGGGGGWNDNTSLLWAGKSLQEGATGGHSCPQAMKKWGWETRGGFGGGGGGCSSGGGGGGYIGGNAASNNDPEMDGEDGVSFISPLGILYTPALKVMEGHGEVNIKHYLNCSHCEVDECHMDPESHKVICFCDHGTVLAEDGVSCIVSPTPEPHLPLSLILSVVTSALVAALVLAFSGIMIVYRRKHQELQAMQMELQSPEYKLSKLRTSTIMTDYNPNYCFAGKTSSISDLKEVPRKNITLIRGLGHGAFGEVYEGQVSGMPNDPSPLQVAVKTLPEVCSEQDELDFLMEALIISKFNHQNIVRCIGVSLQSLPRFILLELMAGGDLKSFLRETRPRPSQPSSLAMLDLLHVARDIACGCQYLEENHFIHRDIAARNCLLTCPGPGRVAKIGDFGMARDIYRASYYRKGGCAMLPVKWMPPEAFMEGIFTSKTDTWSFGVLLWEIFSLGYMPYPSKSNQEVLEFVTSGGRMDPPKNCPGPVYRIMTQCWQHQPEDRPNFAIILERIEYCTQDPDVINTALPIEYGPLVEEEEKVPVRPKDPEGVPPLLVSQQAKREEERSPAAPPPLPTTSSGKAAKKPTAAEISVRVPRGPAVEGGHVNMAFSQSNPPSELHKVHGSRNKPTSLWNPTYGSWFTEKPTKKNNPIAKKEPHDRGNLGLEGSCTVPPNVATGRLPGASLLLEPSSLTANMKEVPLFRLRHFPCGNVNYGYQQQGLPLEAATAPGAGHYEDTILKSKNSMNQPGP
Sequence of EGFR Δ746-750/C797S mutant (P00533 other isoform, or with tags, fused parts or gaps C797S/del 1-668/del 746-750 limits assumed): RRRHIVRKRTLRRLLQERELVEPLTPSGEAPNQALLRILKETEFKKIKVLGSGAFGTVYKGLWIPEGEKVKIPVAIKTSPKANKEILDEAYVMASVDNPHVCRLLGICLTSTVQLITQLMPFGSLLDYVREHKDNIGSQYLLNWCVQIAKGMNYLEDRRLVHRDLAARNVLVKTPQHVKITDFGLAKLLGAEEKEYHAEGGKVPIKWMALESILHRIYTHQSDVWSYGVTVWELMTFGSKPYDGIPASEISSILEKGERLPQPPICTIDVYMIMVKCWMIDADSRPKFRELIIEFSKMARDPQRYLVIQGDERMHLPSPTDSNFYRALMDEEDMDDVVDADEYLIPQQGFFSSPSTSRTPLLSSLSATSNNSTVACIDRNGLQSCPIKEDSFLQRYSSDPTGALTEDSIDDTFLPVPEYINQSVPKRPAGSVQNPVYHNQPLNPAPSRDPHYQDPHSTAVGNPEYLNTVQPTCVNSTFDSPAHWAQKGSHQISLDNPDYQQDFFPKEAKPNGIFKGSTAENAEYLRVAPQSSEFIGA
Sequence of EGFR L858R/T790M/C797S mutant (P00533 25-1210 T790M/C797S/L858R): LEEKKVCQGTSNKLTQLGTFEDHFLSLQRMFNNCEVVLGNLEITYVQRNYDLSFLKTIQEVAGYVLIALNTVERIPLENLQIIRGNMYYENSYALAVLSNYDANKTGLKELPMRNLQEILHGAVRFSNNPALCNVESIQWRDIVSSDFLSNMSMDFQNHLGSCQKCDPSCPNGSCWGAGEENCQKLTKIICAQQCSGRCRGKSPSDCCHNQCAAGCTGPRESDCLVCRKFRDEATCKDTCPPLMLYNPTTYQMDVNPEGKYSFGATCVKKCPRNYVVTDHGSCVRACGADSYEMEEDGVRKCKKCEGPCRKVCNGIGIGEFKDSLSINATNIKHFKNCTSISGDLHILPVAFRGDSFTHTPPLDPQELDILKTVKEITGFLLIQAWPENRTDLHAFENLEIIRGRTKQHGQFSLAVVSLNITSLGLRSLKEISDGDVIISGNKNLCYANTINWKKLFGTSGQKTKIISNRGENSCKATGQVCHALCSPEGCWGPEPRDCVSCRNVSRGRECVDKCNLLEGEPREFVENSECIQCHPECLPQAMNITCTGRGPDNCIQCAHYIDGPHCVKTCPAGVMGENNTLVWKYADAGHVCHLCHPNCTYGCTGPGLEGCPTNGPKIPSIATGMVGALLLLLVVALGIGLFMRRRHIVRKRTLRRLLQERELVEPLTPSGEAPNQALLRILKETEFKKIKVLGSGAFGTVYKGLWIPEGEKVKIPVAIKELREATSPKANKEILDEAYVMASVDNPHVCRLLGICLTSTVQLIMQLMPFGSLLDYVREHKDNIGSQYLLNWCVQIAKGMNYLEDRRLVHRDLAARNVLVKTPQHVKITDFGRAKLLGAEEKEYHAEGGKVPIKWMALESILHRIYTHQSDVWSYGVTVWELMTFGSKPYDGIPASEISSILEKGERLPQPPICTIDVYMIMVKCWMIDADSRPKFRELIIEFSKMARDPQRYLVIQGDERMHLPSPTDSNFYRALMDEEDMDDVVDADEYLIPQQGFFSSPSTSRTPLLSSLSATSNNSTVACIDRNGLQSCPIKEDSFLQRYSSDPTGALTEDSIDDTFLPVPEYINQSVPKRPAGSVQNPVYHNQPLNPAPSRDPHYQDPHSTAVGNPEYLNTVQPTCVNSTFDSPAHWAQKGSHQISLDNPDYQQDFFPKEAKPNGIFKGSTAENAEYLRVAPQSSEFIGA

Regarding `Cc1nn(C)c2c1/C=C/c1n[nH]c3ccc(cc13)-c1cnn(C)c1OCCCO2` [Ex. 8, (17E)-8,14,16-trimethyl-2,11,12,14-tetrahydro-8H,10H-3,5-etheno[1,5]dioxacyclopentadecino[10,11-c:15,14-c′:6,7-c″]tripyrazole], the IC50 on EGFR WT was 884 nM; on EGFR (D770_N771insNPG) it was 377 nM; at EGFR Δ746-750 mutant, 44.8 nM; at EGFR L858R mutant, 104 nM; in [1], 24.3 nM; against ALK it was 2.09 nM.
As for `CC(C)Oc1nn(CCO)c2c1/C=C/c1n[nH]c3ccc(cc13)-c1cnn(C)c1O[C@@H](CO)CN(C)C2` [Example 258, 2-{(10R,17E)-10-(hydroxymethyl)-8,12-dimethyl-16-[(propan-2-yl)oxy]-2,8,10,11,12,13-hexahydro-14H-3,5-ethenotripyrazolo[3,4-f:3′,4′-j:4″,3″-n][1,4]oxazacyclopentadecin-14-yl}ethan-1-ol], the IC50 against EGFR WT was found to be 5.72 nM; on EGFR (D770_N771insNPG), 15.8 nM; against EGFR Δ746-750 mutant, 1.22 nM; in experiment [2], 1.26 nM; on EGFR L858R mutant it was 1.56 nM; against EGFR L858R/T790M mutant it was 0.48 nM. Moreover, the IC50 in experiment [1] amounted to 2.17 nM; at CLK1, 0.5 nM; at CLK2, 0.23 nM; on CLK3, 17.2 nM; on CLK4, 1.04 nM.
In the case of `CCOc1nn(CCO)c2c1/C=C/c1n[nH]c3ccc(cc13)-c1cnn(C)c1OC[C@H](CC)N(C)C2` [Example 259, 2-[(11S,17E)-16-ethoxy-11-ethyl-8,12-dimethyl-2,8,10,11,12,13-hexahydro-14H-3,5-ethenotripyrazolo[3,4-f:3′,4′-j:4″,3″-n][1,4]oxazacyclopentadecin-14-yl]ethan-1-ol], the IC50 is 329 nM against EGFR WT; 500 nM on EGFR (D770_N771insNPG); 40.1 nM at EGFR Δ746-750 mutant; 22.9 nM in experiment [2]; 66.5 nM on EGFR L858R mutant; 9.39 nM at EGFR L858R/T790M mutant. The IC50 in experiment [1] came to 21.8 nM; on CLK1, 0.9 nM; on CLK2, 4.29 nM; on CLK3, 1000 nM; on CLK4, 1.3 nM.
For `CCOc1nn(CCO)c2c1/C=C/c1n[nH]c3ccc(cc13)-c1cnn(C)c1O[C@@H](CC)CN(C)C2` [Example 260, 2-[(10S,17E)-16-ethoxy-10-ethyl-8,12-dimethyl-2,8,10,11,12,13-hexahydro-14H-3,5-ethenotripyrazolo[3,4-f:3′,4′-j:4″,3″-n][1,4]oxazacyclopentadecin-14-yl]ethan-1-ol], the IC50 worked out at 13.6 nM against EGFR WT; 25.3 nM at EGFR (D770_N771insNPG); 3.5 nM on EGFR Δ746-750 mutant; 3.74 nM in experiment [2]; 4.55 nM at EGFR L858R mutant; 0.9 nM on EGFR L858R/T790M mutant. For the same compound, the IC50 in experiment [1] came to 3.19 nM; at CLK1 it was 4.9 nM; on CLK2, 5.21 nM; on CLK3, 361 nM; on CLK4 it was 3.15 nM.
For the compound `COCc1nn(CCO)c2c1/C=C/c1n[nH]c3ccc(cc13)-c1cnn(C)c1O[C@@H](C)CN(C)C2` [Example 261, 2-[(10S,17E)-16-(methoxymethyl)-8,10,12-trimethyl-2,8,10,11,12,13-hexahydro-14H-3,5-ethenotripyrazolo[3,4-f:3′,4′-j:4″,3″-n][1,4]oxazacyclopentadecin-14-yl]ethan-1-ol], the IC50 at EGFR WT came out at 93.7 nM; at EGFR (D770_N771insNPG), 230 nM; on EGFR Δ746-750 mutant, 23.5 nM; in experiment [2] it was 5.93 nM; against EGFR L858R mutant it was 21.6 nM; at EGFR L858R/T790M mutant, 1.92 nM. Moreover, the IC50 in [1] worked out at 5.1 nM; on CLK1 it was 0.2 nM; at CLK2, 0.33 nM; at CLK3, 209 nM; on CLK4 it was 0.44 nM.
Consider `CCN1Cc2c(c(OC(C)C)nn2CC(C)(C)O)/C=C/c2n[nH]c3ccc(cc23)-c2cnn(C)c2O[C@@H](C)C1` [Example 262, 1-{(10S,17E)-12-ethyl-8,10-dimethyl-16-[(propan-2-yl)oxy]-2,8,10,11,12,13-hexahydro-14H-3,5-ethenotripyrazolo[3,4-f:3′,4′-j:4″,3″-n][1,4]oxazacyclopentadecin-14-yl}-2-methylpropan-2-ol], for which the IC50 is 94.5 nM on EGFR WT; 98.3 nM on EGFR (D770_N771insNPG); 8.48 nM against EGFR Δ746-750 mutant; 7.12 nM in [2]; 40.1 nM on EGFR L858R mutant; 4.98 nM at EGFR L858R/T790M mutant. Further, the IC50 was found to be 1.67 nM in experiment [1]; 0.82 nM on CLK1; 0.49 nM at CLK2; 104 nM at CLK3; 1.5 nM at CLK4.
Turning to `CCN1Cc2c(c(OC(C)C)nn2CC(C)=O)/C=C/c2n[nH]c3ccc(cc23)-c2cnn(C)c2O[C@@H](C)C1` [Example 263, 1-{(10S,17E)-12-ethyl-8,10-dimethyl-16-[(propan-2-yl)oxy]-2,8,10,11.12,13-hexahydro-14H-3,5-ethenotripyrazolo[3,4-f:3′,4′-j:4″,3″-n][1,4]oxazacyclopentadecin-14-yl}propan-2-one], the IC50 against EGFR WT stood at 6.94 nM; at EGFR (D770_N771insNPG), 18.2 nM; on EGFR Δ746-750 mutant, 1.28 nM; in experiment [2], 1.79 nM; on EGFR L858R mutant, 3.97 nM; on EGFR L858R/T790M mutant, 0.75 nM. Further, the IC50 in experiment [1] came out at 0.5 nM; on CLK1, 0.64 nM; at CLK2 it was 0.71 nM; on CLK3, 32.7 nM; at CLK4, 1.31 nM.
`CC(C)Oc1nn(CCO)c2c1/C=C/c1n[nH]c3ccc(cc13)-c1cnn(C)c1O[C@@H](C#N)CN(C)C2` [Example 264, (10R,17E)-14-(2-hydroxyethyl)-8,12-dimethyl-16-[(propan-2-yl)oxy]-2,10,11,12,13,14-hexahydro-8H-3,5-ethenotripyrazolo[3,4-f:3′,4′-j:4″,3″-n][1,4]oxazacyclopentadecine-10-carbonitrile]: the IC50 against EGFR WT was found to be 815 nM; at EGFR (D770_N771insNPG) it was 826 nM; on EGFR Δ746-750 mutant, 162 nM; in [2], 70 nM; at EGFR L858R mutant it was 491 nM; on EGFR L858R/T790M mutant it was 18 nM. In addition, the IC50 in [1] amounted to 8.63 nM; on CLK1 it was 1.06 nM; on CLK2, 3.08 nM; at CLK3, 519 nM; on CLK4 it was 1.59 nM.
For the compound `CCN1Cc2c(c(OC)nn2[C@@H](C)CO)/C=C/c2n[nH]c3cc(F)c(cc23)-c2cnn(C)c2O[C@H](C)C1` [Example 289, (2S)-2-[(10R,17E)-12-ethyl-19-fluoro-16-methoxy-8,10-dimethyl-2,8,10,11,12,13-hexahydro-14H-3,5-ethenotripyrazolo[3,4-f:3′,4′-j:4″,3″-n][1,4]oxazacyclopentadecin-14-yl]propan-1-ol], the IC50 against ALK is 15.4 nM.
Take `CCNC(=O)Cn1nc(C)c2c1COCCOc1c(cnn1C)-c1ccc3[nH]nc(c3c1)/C=C/2` [Example 301, 2-[(17E)-8,16-dimethyl-2,10,11,13-tetrahydro-3,5-etheno[1,4]dioxacyclopentadecino[10,11-c:15,14-c′:6,7-c′]tripyrazol-14(8H)-yl]-N-ethylacetamide]: the IC50 against ALK worked out at 29 nM.
The same measure, in the same setting: the same measure for `Cc1nn(C)c2c1/C=C/c1n[nH]c3ccc(cc13)-c1cnn(C)c1OCCOC2` [Example 303, (17E)-8,14,16-trimethyl-2,8,10,11,13,14-hexahydro-3,5-etheno[1,4]dioxacyclopentadecino[10,11-c:15,14-c′:6,7-c″]tripyrazole]: 27.5 nM.

(Values after US20250353864A1, “INDAZOLE CONTAINING MACROCYCLES AND THEIR USE” (BLOSSOMHILL THERAPEUTICS, INC., priority 2022, published 2025).)
